Experimental data taken from patent US20060121449A1, “Method for selection of compounds which inhibit clonal cell growth and use thereof” (priority 2002, published 2006).

How the values were obtained:
[1] = system: spleen antibody producing cells against sheep red cells; assay: Jerne's test: haemolytic plaques of spleen cells after immunisation with sheep red cells (Exp 10); type: in vivo, mouse; conditions: for Change of number of plaques (antibody producing cells), average and high doses: 8.4 μl 20 mM and 3.5 μl 200 mM s.c.; for Condition of the animals on injection days (day 0 to day 62): all animals, s.c. 2 μl 20 mM to 3.5 μl 200 mM, day = column head; for Plaque no. in 10 mill. cells: control 4689
Protocol: The same principle could be tested in animals using the classical Jerne's test. Shortly described: Mice were immunised with sheep red cells. At the same time subcutaneous injection with a clone inhibitor, e.g. 4-OH-OPB, was performed. After 5 days the spleen was squeezed and spleen-cells counted and mixed with agar medium, sheep red cells and complement. After a short time plaques appeared and were counted and percent of total number of spleen cells was calculated. […] Therefore, it is probable that it is only the reaction against the new immunogen that is affected. […] Only cells of the same specificity seemed to be the <> of clonal inhibition even if lots of other B-lymphocytes are present, but with other specificities. The only condition necessary seemed to be that affected cells should be located more than a certain distance from each other.
In order to examine the degree of diminishing cloning in the immune system, Jerne's test in mice may be suitable (Experiment 10). Sheep erythrocytes are injected into mice. A few days later cells from the spleen of the animals are studied. In experiment 10 the smallest dose was about 3.8 μM if 4-OH-OPB was solved in the extracellular fluid of the mouse. […] But there are indications that normal cells might tolerate higher doses than malignant cells. Therefore, it is thought that effective tumour inhibiting doses of 4-OH-OPB probably will affect the clonability of antibody producing cells in the spleen under or shortly after primary immunisation moderately, about 2 logs.
The test animals were 4 mice, white Bom/NMRI (Table 5). The drug that was tested in this experiment is 4-OH-OPB (Table 1-4). It is inhibiting Ehrlich ascites when injected together with the cells in peritoneum in a concentration of 4 μM or higher and clonal growth of BHK21/c13 and its polyoma virus transformed offspring, S100T1, in cell culture.
A section was performed; they were weighed and a search for tumour masses was undertaken without finding any. The spleens were removed and about half of it crushed in 0.5 ml Eagles for getting extracted, free spleen cells that were seeded in soft agar on top of a solid agar layer in a Petri dish of 8.5 cm in diameter. The agar layer with spleen cells also contained sheep red cells and complement was added to obtain hemolysis.
Animals were killed by cervical dislocation on day 62 and spleens were immediately put on cold Eagle's medium for transportation. It lasted about 5 hours before the agar dishes were ready for incubation in 5% CO2 and 37° C. However, the dishes from mouse #1 and #2 were too fluid in the top layers and developed two many plaques to be counted. Therefore, the next day, the second half of the two spleens from mouse #1 and #2 that were kept cold in the same medium were crushed in the same way and new dishes were prepared with less number of cells.

[2] = system: spleen antibody producing cells against sheep red cells; assay: as above; type: in vivo, mouse; conditions: Exp 10 animal 2, low: 2 μl 20 mM s.c. (est. max extracellular 4.6 μM)
[3] = system: BHK21/c13 cells; assay: Surface growth (degree of confluence) of BHK21/c13 cells on plastic (Exp 5); type: cell-based, hamster; conditions: for Concentration giving about full inhibition of growth on surface: 2-4 days
Excerpt: (§1) The degree of confluence of polyoma virus transformed BHK21/c13 cells, the S100T1 cell strain, growing on plastic surface was observed 2-4 days after seeding 3000 or […] cells in appropriate wells of a 96 well tissue culture plate (Nunc).

[4] = system: HSV1; assay: HSV1 replication and cytopathogenicity in RK13 cells (Exp 11a, 11b); type: cell-based, Herpes virus type 1; conditions: for Coverage of the bottom read after 2 days / Cytopathogenicity read after 2 days: 11b, HSV 2 μl/well; for Coverage of the bottom read after 2 days: 1 g = 100% coverage of the bottom; for Cytopathogenicity read after 2 days: 1d is 100% degeneration
Protocol: RK13 cells and HSV1 v:11252 was obtained from Dr. G. Hoddevik, National Institute of Public Health, Oslo, Virus had been stored at −75° C.
The inoculated virus was not removed before the titration in the last experiment. This time, however, removal of inoculate was performed next day.
HSV-1 was added undiluted, but 4-OH-OPB was diluted in 50 μl medium. The row seeded with 2000 nl of HSV was titrated and read after 4 days:
This time the inhibition is 10 times better than before. The difference from 1st time was that the day after infecting cell cultures the medium was changed in order to get rid of remaining active HSV. In addition the original HSV 1 infected and treated cultures were incubated one day more, for 48 hours. The production of virus is then measured in titration of 4-fold dilution steps.

[5] = system: S100T1 cell strain (polyoma virus transformed BHK21/c13); assay: Surface growth (degree of confluence) of S100T1 cells on plastic (Exp 5); type: cell-based, hamster; conditions: 2-4 days
Excerpt: as §1

[6] = system: HSV1; assay: HSV1 replication and cytopathogenicity in RK13 cells (Exp 11a, 11b); type: cell-based, Herpes virus type 1; conditions: for Cytopathogenicity read after 24 hours: 4d = 100% degenerated; for Cell layer read after 24 hours: 4 g = unaffected and covering bottom of the well; for Coverage of the bottom read after 2 days / Cytopathogenicity read after 2 days: 11b, HSV 2 μl/well; for Coverage of the bottom read after 2 days: 1 g = 100% coverage of the bottom; for Cytopathogenicity read after 2 days: 1d is 100% degeneration
[7] = Exp 10 animal 2, low: 2 μl 20 mM s.c.
[8] = Exp 10 animal 3, average: 8.4 μl 20 mM s.c.
[9] = Exp 10 animal 4, high: 3.5 μl 200 mM s.c.
[10] = 11a, inoculate 1 μl/well, 30 μM
[11] = 11a, inoculate 4 μl/well, 30 μM
[12] = 11a, inoculate 16 μl/well, 30 μM

## CCCCC1(O)C(=O)N(c2ccccc2)N(c2ccc(O)cc2)C1=O (stereo not shown) [4-OH-OPB, 4-butyl-4-hydroxy-2(p-hydroxyphenyl)-1-phenyl-3,5-pyrazolidinedione]
[1]; Exp 10, 2 μl 20 mM s.c.
  Change of number of plaques, smallest dose: did not significantly change the number of plaques
[1]; Exp 10
  Change of number of plaques (antibody producing cells), average and high doses: did reduce the number significantly
  Condition of the animals on injection days (day 0 to day 62): all animals were clinically well
[1]; Exp 10, listed as 4-OH—OPB
  Change of number of plaques (antibody producing cells), average and high doses: OPB significantly reduced the number of anti-
  Condition of the animals on injection days (day 0 to day 62): all well at end
[1]; [7]
  1. number of plaques: many
  Plaque no. in 10 mill. cells: 3134
[1]; Exp 10 animal 2, low: 2 μl 20 mM s.c., 32.6 million cells on dish
  2. number of plaques: 10218
[1]; [8]
  1. number of plaques: 42
  Plaque no. in 10 mill. cells: 8.4
[1]; Exp 10 animal 3, average: 8.4 μl 20 mM s.c. (est. max extracellular 19.6 μM)
  Spleen weight: 150 mg
[1]; [9]
  1. number of plaques: 0-2?
  Plaque no. in 10 mill. cells: <=0.23
[1]; Exp 10 animal 4, high: 3.5 μl 200 mM s.c. (est. max extracellular 67.7 μM)
  Spleen weight: 136 mg
[1]; Exp 10 mouse 2 (11.3 μg 4-OH-OPB/30 g)
  Mouse weight after 2 months: 37.6 gram
[1]; Exp 10 mouse 3 (51.5 μg 4-OH-OPB/30 g)
  Mouse weight after 2 months: 33.3 gram
[1]; Exp 10 mouse 4 (210.2 μg 4-OH-OPB/30 g)
  Mouse weight after 2 months: 34 gram
[2]
  Spleen weight: 148 mg
[3]
  Concentration needed for total inhibition of surface growth, BHK21/c13 compared to S100T1: about 3 times
[3]; 3000 BHK21/c13 cells/well
  Growth on surface with 100 and 300 nM after 4 days: growth inhibition compared to the control
  Concentration giving about full inhibition of growth on surface: 3 µM
[3]; 10000 BHK21/c13 cells/well with 0.1 i.u./ml insulin
  Concentration giving about full inhibition of growth on surface: 10 µM
[4]; 0.1 μM
  Coverage of the bottom read after 2 days: 1 g
  Cytopathogenicity read after 2 days: 0.28 days
[4]; 0.3 μM
  Cytopathogenicity read after 2 days: 0.28 days
[4]; 10 μM
  Coverage of the bottom read after 2 days: 0.4 g
[4]; 30 μM
  Cytopathogenicity read after 2 days: 0 days
[4]; Exp 11b, new medium after 24 hours, titrated after 48 hours
  Concentration found to inhibit satisfactorily: 1 µM
[5]; 3000 S100T1 cells/well
  Concentration giving about full inhibition of growth on surface: 1 µM
[5]; 10000 S100T1 cells/well
  Concentration giving about full inhibition of growth on surface: 3 µM
[6]; 11a, 1 μl HSV, 0.3 μM, dilution 1/1024
  HSV titration of treated wells, read after 4 days: ((+)?
[6]; 11a, inoculate 1 μl/well, 0.1 μM
  Cytopathogenicity read after 24 hours: 1.7 days
[6]; 11a, inoculate 1 μl/well, 0.3 μM
  Cytopathogenicity read after 24 hours: 1.7 days
[6]; 11a, inoculate 1 μl/well, 1 μM
  Cytopathogenicity read after 24 hours: 1.7 days
[6]; 11a, inoculate 1 μl/well, 3 μM
  Cytopathogenicity read after 24 hours: 1.7 days
[6]; 11a, inoculate 1 μl/well, 10 μM
  Cytopathogenicity read after 24 hours: 4 days
[6]; [10]
  Cell layer read after 24 hours: 3 to 4 g
  Cytopathogenicity read after 24 hours: 0 days
[6]; 11a, inoculate 4 μl/well, 0.1 μM
  Cytopathogenicity read after 24 hours: 2.6 days
[6]; 11a, inoculate 4 μl/well, 0.3 μM
  Cytopathogenicity read after 24 hours: 2.6 days
[6]; 11a, inoculate 4 μl/well, 1 μM
  Cytopathogenicity read after 24 hours: 2.6 days
[6]; 11a, inoculate 4 μl/well, 3 μM
  Cytopathogenicity read after 24 hours: 2.6 days
[6]; 11a, inoculate 4 μl/well, 10 μM
  Cytopathogenicity read after 24 hours: 4 days
[6]; [11]
  Cell layer read after 24 hours: 3 to 4 g
  Cytopathogenicity read after 24 hours: 0 days
[6]; 11a, inoculate 16 μl/well, 0.1 μM
  Cytopathogenicity read after 24 hours: 3.4 days
[6]; 11a, inoculate 16 μl/well, 0.3 μM
  Cytopathogenicity read after 24 hours: 3 to 4 days
[6]; 11a, inoculate 16 μl/well, 1 μM
  Cytopathogenicity read after 24 hours: 3.4 days
[6]; 11a, inoculate 16 μl/well, 3 μM
  Cytopathogenicity read after 24 hours: 4 days
[6]; 11a, inoculate 16 μl/well, 10 μM
  Cytopathogenicity read after 24 hours: 4 days
[6]; [12]
  Cell layer read after 24 hours: 3 to 4 g
  Cytopathogenicity read after 24 hours: 0.5 days
[6]; 0.3 μM
  Coverage of the bottom read after 2 days: 1 g
[6]; 1 μM
  Coverage of the bottom read after 2 days: 1 g
  Cytopathogenicity read after 2 days: 0.28 days
[6]; 3 μM
  Coverage of the bottom read after 2 days: 1 g
  Cytopathogenicity read after 2 days: 0.28 days
[6]; 10 μM
  Cytopathogenicity read after 2 days: 1 days
[6]; 30 μM
  Coverage of the bottom read after 2 days: 1 g
[6]; Exp 11a, inoculate not removed before titration
  Concentration that inhibited HSV / necessary for the cure of the infection in cell culture: 10 µM
[6]; Exp 11b
  Concentration that inhibited satisfactorily: 1000 nM
  Total titre reduction: about 3.5 log
[6]; Exp 11b, titration read after four days
  Dose giving maximal inhibition of HSV1 titre: ≥ 1 µM
[6]; medium changed the day after infection
  Inhibition in Exp 11b compared with Exp 11a: 10 times
